Test results: patent US20160251625A1, “METHOD FOR SCALABLE SKELETAL MUSCLE LINEAGE SPECIFICATION AND CULTIVATION” (THE CURATORS OF THE UNIVERSITY OF MISSOURI, priority 2013, published 2016)

What was measured:
[1] = test system: O2KM cell line; test: 5AC effects on MYF5 expression and terminal differentiation of O2KM; format: cell-based, porcine
Protocol: Therefore, a epigenetic modulator was used to enhance the expression of myogenic genes in cells otherwise non-permissive to myogenesis and enhance terminal differentiation of lineage committed myoctes to mature myofibers. […] This distinction may explained by the enhanced expression of the myogenic transcription factor MYF5 observed only in the 5AC-exposed O2KM prior to and following 48 hours of DOX withdrawal
(§1) 5AC exposure prior to, during, and following E2-mediated induction of ‘MyoDER’ was introduced to enable terminal-differentiation of O2KM from myocytes into refractive, filamentous myotubes. The murine C2C12 cell line was used as positive control to screen for optimal conditions for terminal differentiation by O2KM. […] 5AC, a small-molecule epigenetic modulator, was determined previously to enable skeletal muscle transcription in cell lines non-permissive to myogenesis. Moreover, 5AC exposure was further determined to enhance terminal differentiation by the C2C12 cell line.
N-2 and B-27 supplements were used exclusively as serum replacements. Cultures were differentiated for up to 6d following under 20% O2 following induction regimens (FIG. 20A). […] Contractile potential of terminally differentiating skeletal muscle myotubes was validated by (1) structural development of well-organized sarcomeres, as shown in FIG. 20G; (2) asynchronous spontaneous contraction, as shown in FIG. 21A; (3) contractile stimulation and synchronization by field stimulation, as shown in FIG. 21B; (4) caffeine-stimulated contraction, as shown in FIG. 21C; and (5) acetylcholine-stimulated contraction, as shown in FIG. 21D.
piPSC modification with an integrated MyoDER expression cassette. […] Arrows and boxes indicate promoter and gene sequences, respectively. […] MyoDER was detected with an antibody raised against a MyoD peptide. […] Endogenous MYOD1 (˜45 kD, expected) was not detected. […] Double Arrow: Partially resolved MYOG isoforms. FIGS. 19A and 19B. Determinants of MYF5 activation: Western blot analyses. […] In the absence of CHIR99021, the 17 kD cleaved caspase isoform was not observed in the KOSR supplemented differentiation milieu, as in contrast to observations in the N-2 and B-27 supplemented differentiation milieu (FIG. 17A, FIG. 19A). […] MYODER-modified piPSC were cultured 3 days in self-renewal or expansion milieu. […] TUBA is detected as an internal protein loading control.

[2] = test system: undifferentiated O2KM; test: 5AC tolerance of undifferentiated O2KM; format: cell-based, porcine
Protocol: as §1

[3] = test system: murine C2C12 myoblast; test: terminal differentiation of C2C12 myoblasts, scored by size and extent of myotube formation; format: cell-based; conditions: low-mitogen differentiation cultures (2% horse serum/DMEM)
[4] = test system: O2K cell line; test: differentiation marker Western blot (PAX3, POU5F1, KLF4) in O2K; format: cell-based, porcine; conditions: differentiating O2K, CHIR99021 supplemented basal medium
Text: (§2) 1. As CHIR99021 repressed cell death, supported differentiation toward paraxial mesoderm by the differentiating O2K cell line and enhanced terminal differentiation by the C2C12 cell line, precedent was established to retain the compound in all culture stages.
TUBA detected as an internal protein loading control. FIG. 13A indicates ratios of p-CTNNB1/CTNNB1 bands. FIG. 13B indicates ratios of CTNNB1/TUBA bands. […] TUBA detection is shown as an internal protein loading control.

[5] = test system: O2K cell line; test: cell death / survival of differentiating O2K (phase contrast, cell adhesion, CPP32 cleavage, Annexin V); format: cell-based, porcine; conditions: SRM basal medium without hLIF, DOX, PD032591 and PD173074
Text: as §2
TUBA is detected an internal protein loading control.

[6] = test system: CTNNB1; test: Western blot of CTNNB1 level and phosphorylation in differentiating O2K; format: cell-based, porcine; conditions: primordial differentiation
Text: TUBA detected as an internal protein loading control. […] TUBA detection is shown as an internal protein loading control.

[7] = test system: piPSC-derived myotubes; test: calcium transient activity (Fluo-4 AM) in piPSC-derived myotubes; format: cell-based, porcine; conditions: d6 myotubes, 10 mM, field of view
Text: To quantify contraction cycles, myotube cultures were stained with Fluo-4 AM calcium dye, washed, and image sequences were captured by confocal microscopy. Dynamic signaling events of an entire field of view (FOV) or single cells were traced and plotted over the imaging course. [s]=seconds.

Nc1ncn([C@@H]2O[C@H](CO)[C@@H](O)[C@H]2O)c(=O)n1 [5AC, 5-Aza-Cytidine]
MYF5 expression after expansion culture ([1]; MyoDER-modified piPSC, 3 days, in the presence of DOX and CHIR99021): supported detectable MYF5 expression levels | MYF5 expression ([1]; O2KM derived myocytes cultured in the presence of 5AC): MYF5 expression was enhanced | myotube morphology in terminal differentiation ([1]; O2KM exposed to 5AC during expansion and induction regimens): formed refractive, anisotropic myotubes | activation of endogenous MYF5 expression, dependence on CHIR99021 ([1]; unmodified piPSC, 2d differentiation milieu with KOSR, no 3i, DOX, hLIF, E2): dependent upon simultaneous CHIR99021 exposure | highest dose tolerated [2]: 250 nM

Cc1c[nH]c(-c2cnc(NCCNc3ccc(C#N)cn3)nc2-c2ccc(Cl)cc2Cl)n1 [CHIR99021]
terminal differentiation of C2C12 into skeletal myotubes [3]: enhanced terminal differentiation into skeletal myotubes | paraxial mesoderm lineage specification (PAX3 expression, loss of POU5F1 and KLF4) [4]: supported pre-myogenic paraxial mesoderm lineage specification of differentiating O2K | cell survival during differentiation [5]: supported both cell survival during differentiation | CTNNB1 stabilization and phosphorylation status [6]: stabilizes and modulates the phosphorylation status of the GSK3β substrate, CTNNB1

Cn1c(=O)c2c(ncn2C)n(C)c1=O [caffeine]
calcium transient activation [7]: calcium transient activation
